Measured values reported in patent US6833372B2, “Non-peptide GnRH agents, Pharmaceutical compositions, and methods for their use” (Pfizer, Inc., priority 2002, dated 2004).

What was measured:
[1] = molecular target: T1, rat GnRH receptor (Rattus norvegicus, UniProt P30969); assay: Radioligand binding: inhibition of 125I-GnRH-A binding to rat GnRH receptor (rat pituitary membranes); conditions: read-out: Ki (nM), Inhibition Binding of 125I-GnRH-A to GnRH Receptors
T1 construct: or rat pituitaries (Pel Freez Biologicals, Rogers, Ark.) were homogenized; tissue Pel Freez Biologicals; host or cells: rat pituitaries (membrane preparation)
T1 sequence (P30969 1-327): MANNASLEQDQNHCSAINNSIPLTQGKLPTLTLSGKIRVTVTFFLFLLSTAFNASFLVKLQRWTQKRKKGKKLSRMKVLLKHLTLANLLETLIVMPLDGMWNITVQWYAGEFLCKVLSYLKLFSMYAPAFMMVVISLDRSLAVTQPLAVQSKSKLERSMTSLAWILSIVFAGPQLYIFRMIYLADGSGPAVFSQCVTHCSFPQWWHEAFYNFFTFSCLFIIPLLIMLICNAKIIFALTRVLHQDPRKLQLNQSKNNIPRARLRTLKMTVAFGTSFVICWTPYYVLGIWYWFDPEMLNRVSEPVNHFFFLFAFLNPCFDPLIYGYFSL
Experimental: (§1) HEK 293 cells containing mouse or human receptors, or rat pituitaries (Pel Freez Biologicals, Rogers, Ark.) were homogenized in buffer A containing: 50 mM Tris (pH 7.4), 0.32 M sucrose, 2 mM EGTA, 1 mM PMSF, 5 μg/ml aprotinen, 5 μg/ml Pepstatin A, and 1 μg/ml leupeptin. Homogenized cells were centrifuged at 4° C. at 20,000×g for 25 minutes, re-suspended in buffer A and re-centrifuged at 4° C. at 20,000×g for an additional 25 minutes. Total membrane protein was determined with a BCA kit (Pierce, Rockford, Ill.). Membranes were stored at −70° C. at a final membrane protein concentration of approximately 5 mg/ml.
(§2) The radioiodinated agonist analog of GnRH, [des-Gly^10,D-Ala^6]GnRH ethylamide (^125I-GnRH-A), was used as the radioligand. […] The reaction mixture was vortexed and incubated for 1 minute at room temperature. After one minute, the mixture was vortexed and allowed to incubate for an additional minute. 2 ml of 0.5 M acetic acid/1% BSA was added to the reaction tube and the mixture was added to a C18 Sep-Pak cartridge. The cartridge was washed with subsequent washes of 5 ml H2O and 5 ml 0.5 M acetic acid and then eluted with 5×1 ml of 60% CH3CN/40% 0.5 M acetic acid. The eluate was diluted with 3× volume of HPLC buffer A (0.1% TFA in H2O) and loaded onto a C18 column. The iodinated product was eluted over 20-25 min with a gradient of 25-100% CH3CN containing 0.1% TFA. The radioactive fractions (750 μl/fraction) were collected into clean polypropylene tubes containing 100 μl of 10% BSA. Fractions were assessed for biological activity by radioligand binding. Specific activity of the radioligand was approximately 2200 Ci/mmol.
(§3) Membranes were diluted to 0.01-0.5 mg/ml (depending upon the species of receptor) with assay buffer containing 50 mM HEPES (pH 7.4), 1 mM EDTA, 2.5 mM MgCl2, and 0.1% BSA. Membranes (diluted to utilize similar receptor numbers between assays) were incubated with approximately 0.04-0.06 nM ^125I-GnRH-A in the presence or absence of competing agents (0.1-10,000 nM) in a total volume of 200 μl in 96-well polypropylene plates for 1 hour at room temperature. Assays were stopped by rapid filtration onto 96-well GF/C filters soaked in 0.1% polyethylenimine (PEI) utilizing a Packard 96-well cell harvester. Filters were washed three times with ice-cold PBS (50 mM NaPO4, 0.9% NaCl, 2 mM MgCl2, and 0.02% NaN3, pH 7.4). 35 μl of scintillation cocktail was added to each filter well and filters were counted on a Packard Topcount. Control dose-response curves were generated to GnRH (0.1 nM-100 nM) in each competition binding experiment. Ki values were calculated from IC50 values according to Cheng et al., Biochemical Pharmacol. 22: 3099-3108, 1973. [formula]

[2] = molecular target: T2, human GnRH receptors (Homo sapiens, UniProt P30968); assay: Radioligand binding: inhibition of 125I-GnRH-A binding to human GnRH receptor membranes; conditions: HEK 293 cell membranes
T2 construct: expressed in transfected cells; host or cells: HEK 293 cells, stably transfected; membranes
T2 sequence (P30968 1-328): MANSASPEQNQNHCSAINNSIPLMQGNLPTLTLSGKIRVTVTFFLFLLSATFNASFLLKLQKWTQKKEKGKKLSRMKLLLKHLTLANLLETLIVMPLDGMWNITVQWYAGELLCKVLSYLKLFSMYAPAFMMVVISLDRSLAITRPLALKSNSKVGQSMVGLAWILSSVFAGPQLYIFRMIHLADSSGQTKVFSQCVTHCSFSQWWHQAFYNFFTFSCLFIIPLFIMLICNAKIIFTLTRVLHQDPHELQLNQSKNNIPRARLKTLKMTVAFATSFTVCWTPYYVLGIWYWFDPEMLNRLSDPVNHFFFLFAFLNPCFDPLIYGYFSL
Experimental: HEK 293 cells stably transfected with mouse or human GnRH receptors as described above were grown in Dulbecco's high-glucose, modified Eagle's medium (DMEM) supplemented with 0.2% G418, 10% fetal bovine serum (FBS) and 100 U/mL penicillin/streptomycin. GH3 cells stably transfected with the rat GnRH receptor (GGH3) were provided by Dr. William Chin (Harvard Medical School, Boston, Mass.). These cells have been extensively characterized previously (Kaiser et al., 1997). The cells were grown in low glucose DMEM containing: 100U/mL penicillin/streptomycin, 0.6% G418 and 10% heat-inactivated FBS.
as §1, §2, §3

Ki [1] [nM]	Ki [2] [nM]	SMILES
2.4	3.5	COc1nc(N2CCN(CCN)CC2)nc(OC)c1NC(=O)c1ccc(Cc2cc3c(cc2C)C(C)(C)OC3(C)C)o1 [Example D15, N-{2-[4-(2-Aminoethyl)piperazin-1-yl]-4,6-dimethoxypyrimidin-5-yl}-5-[(1,1,3,3,6-pentamethyl-1,3-dihydro-2-benzofuran-5-yl)methyl]-2-furamide]
1.9	8.7	COc1nc(NCCCn2ccnc2)nc(OC)c1NC(=O)c1ccc(Cc2cc3c(cc2C)C(C)(C)OC3(C)C)o1 [Example D19, N-(2-{[3-(1H-Imidazol-1-yl)propyl]amino}-4,6-dimethoxypyrimidin-5-yl}-5-[(1,1,3,3,6-pentamethyl-1,3-dihydro-2-benzofuran-5-yl)methyl]-2-furamide]
0.5	1	CNCCNc1nc(OC)c(NC(=O)c2ccc(Cc3cc4c(cc3C)C(C)(C)OC4(C)C)o2)c(OC)n1 [Example D20, N-(4,6-Dimethoxy-2-{[2-(methylamino)ethyl]amino}-pyrimidin-5-yl}-5-[(1,1,3,3,6-pentamethyl-1,3-dihydro-2-benzofuran-5-yl)methyl]-2-furamide]
15	22	COc1nc(N(C)Cc2cccnc2)nc(OC)c1NC(=O)c1ccc(Cc2cc3c(cc2C)C(C)(C)OC3(C)C)o1 [Example D38, N-{4,6-Dimethoxy-2-[methyl(pyridin-3-ylmethyl)amino]pyrimidin-5-yl}-5-[(1,1,3,3,6-pentamethyl-1,3-dihydro-2-benzofuran-5-yl)methyl]-2-furamide]
5.4	19	CCCCC(CC)COCCCNc1nc(OC)c(NC(=O)c2ccc(Cc3cc4c(cc3C)C(C)(C)OC4(C)C)o2)c(OC)n1 (centres unmarked) [Example D39, N-[2-({3-[(2-Ethylhexyl)oxy]propyl}amino)-4,6-dimethoxypyrimidin-5-yl]-5-[(1,1,3,3,6-pentamethyl-1,3-dihydro-2-benzofuran-5-yl)methyl]-2-furamide]
30	27	COc1nc(N2CCC3CNC(=O)C3C2)nc(OC)c1NC(=O)c1ccc(Cc2cc3c(cc2C)C(C)(C)OC3(C)C)o1 (centres unmarked) [Example D40, N-[4,6-Dimethoxy-2-(3-oxooctahydro-5H-pyrrolo[3,4-c]pyridin-5-yl)pyrimidin-5-yl]-5-[(1,1,3,3,6-pentamethyl-1,3-dihydro-2-benzofuran-5-yl)methyl]-2-furamide]
15	12	COc1nc(N(C)CCCCCCO)nc(OC)c1NC(=O)c1ccc(Cc2cc3c(cc2C)C(C)(C)OC3(C)C)o1 [Example D41, N-{2-[(6-Hydroxyhexyl)(methyl)amino]-4,6-dimethoxypyrimidin-5-yl}-5-[(1,1,3,3,6-pentamethyl-1,3-dihydro-2-benzofuran-5-yl)methyl]-2-furamide]
0.64	1.6	COc1nc(NCCSCCO)nc(OC)c1NC(=O)c1ccc(Cc2cc3c(cc2C)C(C)(C)OC3(C)C)o1 [Example D42, N-[2-({2-[(2-Hydroxyethyl)thio]ethyl}amino)-4,6-dimethoxypyrimidin-5-yl]-5-[(1,1,3,3,6-pentamethyl-1,3-dihydro-2-benzofuran-5-yl)methyl]-2-furamide]
3.4	8.6	COc1nc(NCc2ccc(N)cc2)nc(OC)c1NC(=O)c1ccc(Cc2cc3c(cc2C)C(C)(C)OC3(C)C)o1 [Example D44, N-{2-[(4-Aminobenzyl)amino]-4,6-dimethoxypyrimidin-5-yl}-5-[(1,1,3,3,6-pentamethyl-1,3-dihydro-2-benzofuran-5-yl)methyl]-2-furamide]
45	36	CCOCCN(CCOCC)c1nc(OC)c(NC(=O)c2ccc(Cc3cc4c(cc3C)C(C)(C)OC4(C)C)o2)c(OC)n1 [Example D49, N-{2-[Bis(2-ethoxyethyl)amino]-4,6-dimethoxypyrimidin-5-yl}-5-[(1,1,3,3,6-pentamethyl-1,3-dihydro-2-benzofuran-5-yl)methyl]-2-furamide]
19	24	COc1nc(N[C@@H](CO)CSCc2ccccc2)nc(OC)c1NC(=O)c1ccc(Cc2cc3c(cc2C)C(C)(C)OC3(C)C)o1 [Example D50, N-(2-{[(1S)-2-(Benzylthio)-1-(hydroxymethyl)ethyl]amino}-4,6-dimethoxypyrimidin-5-yl)-5-[(1,1,3,3,6-pentamethyl-1,3-dihydro-2-benzofuran-5-yl)methyl]-2-furamide]
2.6	4.8	COc1nc(N(CC(C)O)CC(C)O)nc(OC)c1NC(=O)c1ccc(Cc2cc3c(cc2C)C(C)(C)OC3(C)C)o1 (centres unmarked) [Example D53, N-{2-[Bis(2-hydroxypropyl)amino]-4,6-dimethoxypyrimidin-5-yl)-5-[(1,1,3,3,6-pentamethyl-1,3-dihydro-2-benzofuran-5-yl)methyl]-2-furamide]
14	30	COc1nc(NCC2(O)CCN(C)CC2)nc(OC)c1NC(=O)c1ccc(Cc2cc3c(cc2C)C(C)(C)OC3(C)C)o1 [Example D56, N-(2-{[(4-Hydroxy-1-methylpiperidin-4-yl)methyl]amino}-4,6-dimethoxypyrimidin-5-yl)-5-[(1,1,3,3,6-pentamethyl-1,3-dihydro-2-benzofuran-5-yl)methyl]-2-furamide Acetate]
4.4	36	COc1nc(NCC(c2ccc[nH]2)C(F)(F)F)nc(OC)c1NC(=O)c1ccc(Cc2cc3c(cc2C)C(C)(C)OC3(C)C)o1 (centres unmarked) [Example D57, N-(4,6-Dimethoxy-2-{[3,3,3-trifluoro-2-(1H-pyrrol-2-yl)propyl]amino}pyrimidin-5-yl)-5-[(1,1,3,3,6-pentamethyl-1,3-dihydro-2-benzofuran-5-yl)methyl]-2-furamide]
3.1	4.8	COc1nc(NCCN(C)CCCCCO)nc(OC)c1NC(=O)c1ccc(Cc2cc3c(cc2C)C(C)(C)OC3(C)C)o1 [Example D58, N-[2-({2-[(5-Hydroxypentyl)(methyl)amino]ethyl}amino)-4,6-dimethoxypyrimidin-5-yl]-5-[(1,1,3,3,6-pentamethyl-1,3-dihydro-2-benzofuran-5-yl)methyl]-2-furamide]
14	42	COc1nc(N2CCc3nc(N(C)C)ncc3C2)nc(OC)c1NC(=O)c1ccc(Cc2cc3c(cc2C)C(C)(C)OC3(C)C)o1 [Example D59, N-{2-[2-(Dimethylamino)-7,8-dihydropyrido[4,3-d]pyrimidin-6(5H)-yl]-4,6-dimethoxypyrimidin-5-yl}-5-[(1,1,3,3,6-pentamethyl-1,3-dihydro-2-benzofuran-5-yl)methyl]-2-furamide]
